# From patent US10351559B2, “Maleate salts of a B-RAF kinase inhibitor, crystalline forms, methods of preparation, and uses therefore” (BeiGene, Ltd., priority 2015, dated 2019)
# pIC50: −log10 of the molar value. Structures can show the parent of a compound that is named as a salt.
# Experiments:
# VEGFR2 = target: T1, VEGFR2 (Homo sapiens, UniProt P35968); assay: HTRF KinEASE-TK kinase assay; format: biochemical
# T1 construct: purchased Life Technologies
# Description: (§1) Crystalline Form A* of Compound 1 Sesqui-Maleate was tested against recombinant EGFR/EPHA2/BTK (from Carna Biosciences), ITK/TEC/SRC/PDGFR-beta/TXK/FLT3/VEGFR2/RET (from Life Technologies), and HER2 (aa676-1255, recombinant protein purified from insect expression system) in HTRF KinEASE-TK assay from Cisbio Bioassays according to the manufacturer's instructions. The assay was carried out in a reaction mixture containing kinases, ATP at KM concentration, biotinylated peptide substrate (61TK0BLC, Cisbio Bioassays) and Crystalline Form A* of Compound 1 Sesqui-Maleate. […] After reaction, stop/detection solution was added according to the manufacture's instruction. The stop/detection solution contained Eu+ cryptate conjugated antiphosphotyrosine antibody (61T66kLB, CisBio Bioassays) and Streptavidin-XL665 (610SAXLB, CisBio Bioassays) in buffer containing 25 mM Tris pH7.4, 400 mM KF, 50 mM EDTA, 0.01% BSA, 0.01% Triton X-100. The TR-FRET signals (ratio of fluorescence emission at 665 nm over emission at 620 nm with excitation at 337 nm wavelength) were recorded on a PHERAstar FS plate reader (BMG Labtech) after 1 hr incubation. Phosphorylation of biotinylated peptide substrate led to the binding of both Eu+ cryptate conjugated antiphosphotyrosine antibody and streptaviding-XL665 to the biotinylated peptide. The close proximity of the donor (Eu+ cryptate) and acceptor (XL665) fluorophore led to a high degree of fluorescence resonance energy transfer from the donor fluorophore (at 620 nm) to the acceptor fluorophore (at 665 nm). The IC50 for Crystalline Form A* of Compound 1 Sesqui-Maleate was derived from fitting the dose-response % inhibition data to the four-parameter logistic model by Graphpad Prism software.
# WT-EGFR = target: T2, WT-EGFR (Homo sapiens, UniProt P00533); assay: HTRF KinEASE-TK kinase assay; format: biochemical
# T2 construct: purchased Carna Biosciences
# T2 sequence (P00533 25-1210): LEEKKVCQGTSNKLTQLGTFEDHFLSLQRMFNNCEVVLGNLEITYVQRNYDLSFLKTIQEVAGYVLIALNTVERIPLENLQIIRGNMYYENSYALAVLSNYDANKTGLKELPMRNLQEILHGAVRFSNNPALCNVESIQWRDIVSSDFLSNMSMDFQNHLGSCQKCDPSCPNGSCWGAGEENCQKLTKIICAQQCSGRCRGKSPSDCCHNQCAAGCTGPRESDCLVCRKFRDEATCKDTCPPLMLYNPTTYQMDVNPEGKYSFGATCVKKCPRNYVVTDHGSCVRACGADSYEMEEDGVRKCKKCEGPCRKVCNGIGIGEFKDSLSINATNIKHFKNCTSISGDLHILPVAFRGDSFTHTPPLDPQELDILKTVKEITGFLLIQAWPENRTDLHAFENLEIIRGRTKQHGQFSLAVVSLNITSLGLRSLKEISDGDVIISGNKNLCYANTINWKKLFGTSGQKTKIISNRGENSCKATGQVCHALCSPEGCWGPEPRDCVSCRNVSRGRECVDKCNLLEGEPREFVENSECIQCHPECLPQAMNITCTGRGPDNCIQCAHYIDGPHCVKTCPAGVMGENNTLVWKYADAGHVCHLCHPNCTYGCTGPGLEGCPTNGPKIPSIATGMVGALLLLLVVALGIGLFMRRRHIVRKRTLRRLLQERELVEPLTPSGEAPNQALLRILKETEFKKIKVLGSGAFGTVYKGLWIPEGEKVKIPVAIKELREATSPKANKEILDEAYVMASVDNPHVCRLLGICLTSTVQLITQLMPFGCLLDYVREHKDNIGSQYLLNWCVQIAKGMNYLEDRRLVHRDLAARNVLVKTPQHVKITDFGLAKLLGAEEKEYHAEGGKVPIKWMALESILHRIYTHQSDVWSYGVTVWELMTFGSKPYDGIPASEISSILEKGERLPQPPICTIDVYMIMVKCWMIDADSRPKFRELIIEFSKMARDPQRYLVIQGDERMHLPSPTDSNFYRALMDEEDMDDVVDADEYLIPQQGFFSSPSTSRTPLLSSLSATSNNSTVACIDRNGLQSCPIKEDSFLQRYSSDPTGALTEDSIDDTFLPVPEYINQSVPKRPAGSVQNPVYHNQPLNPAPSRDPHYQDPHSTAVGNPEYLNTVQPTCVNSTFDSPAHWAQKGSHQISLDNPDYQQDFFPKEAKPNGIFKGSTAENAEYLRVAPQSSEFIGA
# Description: as §1
# HER2 (aa676-1255) = target: T3, HER2 (aa676-1255) (Homo sapiens, UniProt P04626); assay: HTRF KinEASE-TK kinase assay; format: biochemical
# T3 construct: HER2 (aa676-1255, recombinant protein purified from insect expression system); made in house; host or cells: insect expression system
# T3 sequence (P04626 676-1255): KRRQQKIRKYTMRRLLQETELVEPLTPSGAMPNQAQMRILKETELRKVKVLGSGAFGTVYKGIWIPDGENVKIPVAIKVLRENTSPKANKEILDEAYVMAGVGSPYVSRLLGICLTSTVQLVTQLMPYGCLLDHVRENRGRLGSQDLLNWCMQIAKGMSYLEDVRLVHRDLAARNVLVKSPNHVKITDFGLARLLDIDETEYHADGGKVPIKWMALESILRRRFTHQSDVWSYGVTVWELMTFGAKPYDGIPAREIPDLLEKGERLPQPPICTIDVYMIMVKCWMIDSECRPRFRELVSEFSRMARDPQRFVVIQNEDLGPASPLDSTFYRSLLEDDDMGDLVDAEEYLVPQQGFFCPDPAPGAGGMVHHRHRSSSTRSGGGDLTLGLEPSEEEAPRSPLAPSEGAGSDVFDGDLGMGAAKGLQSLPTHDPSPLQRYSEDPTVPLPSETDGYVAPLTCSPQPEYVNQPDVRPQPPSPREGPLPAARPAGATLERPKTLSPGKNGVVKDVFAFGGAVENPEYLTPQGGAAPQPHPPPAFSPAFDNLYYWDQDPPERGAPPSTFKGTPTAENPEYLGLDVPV
# Description: as §1
# [1] = hygroscopicity (moisture sorption) by DVS; format: physicochemical; details: exposed to 95% RH, DVS
# From the text: The free base of Compound 1 was obtained originally as an amorphous solid, which is slightly hygroscopic with 2.2% water gain from 0 to 80% RH. No form transformation was observed after dynamic vapor sorption (DVS).
# [2] = pharmacokinetic study (LC-MS/MS); format: in vivo, Sprague-Dawley rats; details: rats
# From the text: The fully-validated LC-MS/MS method was well used for the pharmacokinetic (PK) studies of Crystalline Form A* of Compound 1 Sesqui-Maleate in Sprague-Dawley rats and beagle dogs following single- and multiple-dose administrations.
# wild-type Braf = wild-type Braf (Homo sapiens, UniProt P15056); assay: Raf kinase enzymatic assay (HTRF); format: biochemical
# Chain of wild-type Braf (P15056 whole entry): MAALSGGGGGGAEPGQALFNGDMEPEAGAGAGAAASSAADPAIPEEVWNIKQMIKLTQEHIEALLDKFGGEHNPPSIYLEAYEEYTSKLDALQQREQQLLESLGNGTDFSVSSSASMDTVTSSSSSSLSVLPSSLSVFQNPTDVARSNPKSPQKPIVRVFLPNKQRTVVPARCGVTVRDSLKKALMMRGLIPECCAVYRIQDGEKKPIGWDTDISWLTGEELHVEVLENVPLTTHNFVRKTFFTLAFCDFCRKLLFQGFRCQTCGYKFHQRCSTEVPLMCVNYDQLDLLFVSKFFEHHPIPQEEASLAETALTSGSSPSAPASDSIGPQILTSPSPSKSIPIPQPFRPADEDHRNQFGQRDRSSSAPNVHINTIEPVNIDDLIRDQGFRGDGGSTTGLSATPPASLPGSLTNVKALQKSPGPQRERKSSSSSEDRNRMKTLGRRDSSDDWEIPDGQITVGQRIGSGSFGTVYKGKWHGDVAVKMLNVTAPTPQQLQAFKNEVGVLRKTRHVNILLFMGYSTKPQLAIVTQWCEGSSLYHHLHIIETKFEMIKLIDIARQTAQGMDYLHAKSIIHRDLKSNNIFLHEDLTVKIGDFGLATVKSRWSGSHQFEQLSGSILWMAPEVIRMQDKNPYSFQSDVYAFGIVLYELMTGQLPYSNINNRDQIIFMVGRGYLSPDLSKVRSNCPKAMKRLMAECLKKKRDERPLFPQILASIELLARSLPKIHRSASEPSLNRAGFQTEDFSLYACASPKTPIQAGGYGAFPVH
# Description: (§2) Crystalline Form A* of Compound 1 Sesqui-Maleate was tested against recombinant B-Raf (V600E) (PV3849), C-Raf (Y340D/Y341D) (PV3805) and wild-type Braf (PV3848) from Life Technologies in kinase activity assays based on homogeneous time-resolved fluorescence (HTRF) methodology (Cisbio Bioassays). The assays were carried out in a reaction mixture containing RAF kinases, ATP at KM concentration, GST-tagged MEK1 (K97R) and Crystalline Form A* of Compound 1 Sesqui-Maleate or DMSO in buffer containing 25 mM Tris pH7.4, 10 mM MgCl2, 0.5 mM EGTA, 0.5 mM Na3VO4, 5 mM beta-glycerophosphate, 0.01% Triton X-100, 2.5 mM DTT and 0.1% BSA. The kinase was incubated with Crystalline Form A* of Compound 1 Sesqui-Maleate for 1 hr at room temperature (RT) and the reaction was initiated by the addition of ATP and GST-MEK1 (Full-length protein with K97R mutation, recombinant protein purified from bacterial expression system). After reaction at RT for 1 hr, stop/detection solution was added according to the manufacture's instruction (Cisbio Bioassays). The stop/detection solution contained Eu3+ cryptate-conjugated anti-phospho MEK1/2 (Ser217/221) rabbit polyclonal antibody and d2-conjugated anti-GST mouse monoclonal antibody in buffer containing 25 mM Tris pH7.4, 400 mM KF, 50 mM EDTA, 0.1% BSA and 0.01% Triton X-100. The TR-FRET signals (ratio of fluorescence emission at 665 nm over emission at 620 nm with excitation at 337 nm wavelength) were measured on a PHERAstar FS plate reader (BMG Labtech) after 1.5 hr incubation. Phosphorylation of MEK1 led to the binding of anti-phospho-MEK1/2 antibody to GST-MEK1 protein that place fluorescent donor (Eu3+ crypate) in close proximity to the accepter d2 on the anti-GST antibody, thus resulting in a high degree of fluorescence resonance energy transfer from the donor fluorophore (at 620 nm) to the acceptor fluorophore (at 665 nm). The IC50 for Crystalline Form A* of Compound 1 Sesqui-Maleate was derived from fitting the dose-response % inhibition data to the four-parameter logistic model by Graphpad Prism software.
# C-Raf (Y340D/Y341D) = target: T4, C-Raf (Y340D/Y341D) (Homo sapiens, UniProt P04049, Y340D/Y341D); assay: Raf kinase enzymatic assay (HTRF); format: biochemical
# T4 construct: purchased Life Technologies PV3805
# T4 sequence (P04049 whole entry Y340D/Y341D): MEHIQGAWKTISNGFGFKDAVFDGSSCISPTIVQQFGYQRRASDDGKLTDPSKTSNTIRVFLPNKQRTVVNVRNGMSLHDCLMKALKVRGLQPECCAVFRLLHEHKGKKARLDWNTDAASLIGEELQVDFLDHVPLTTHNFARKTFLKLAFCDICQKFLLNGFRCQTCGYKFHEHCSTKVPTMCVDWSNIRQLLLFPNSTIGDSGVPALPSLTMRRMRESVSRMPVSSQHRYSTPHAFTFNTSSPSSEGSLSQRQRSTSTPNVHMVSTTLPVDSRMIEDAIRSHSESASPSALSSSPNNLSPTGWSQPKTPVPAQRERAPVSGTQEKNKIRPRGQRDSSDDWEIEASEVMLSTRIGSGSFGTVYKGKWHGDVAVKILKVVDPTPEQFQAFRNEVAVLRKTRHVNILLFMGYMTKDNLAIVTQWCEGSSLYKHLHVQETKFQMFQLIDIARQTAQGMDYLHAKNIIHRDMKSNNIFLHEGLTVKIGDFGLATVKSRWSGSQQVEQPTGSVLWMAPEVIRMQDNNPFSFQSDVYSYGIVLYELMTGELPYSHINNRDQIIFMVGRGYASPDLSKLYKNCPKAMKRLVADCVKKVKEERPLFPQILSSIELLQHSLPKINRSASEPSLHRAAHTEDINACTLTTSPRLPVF
# Description: as §2
# T1 sequence (P35968 20-1356): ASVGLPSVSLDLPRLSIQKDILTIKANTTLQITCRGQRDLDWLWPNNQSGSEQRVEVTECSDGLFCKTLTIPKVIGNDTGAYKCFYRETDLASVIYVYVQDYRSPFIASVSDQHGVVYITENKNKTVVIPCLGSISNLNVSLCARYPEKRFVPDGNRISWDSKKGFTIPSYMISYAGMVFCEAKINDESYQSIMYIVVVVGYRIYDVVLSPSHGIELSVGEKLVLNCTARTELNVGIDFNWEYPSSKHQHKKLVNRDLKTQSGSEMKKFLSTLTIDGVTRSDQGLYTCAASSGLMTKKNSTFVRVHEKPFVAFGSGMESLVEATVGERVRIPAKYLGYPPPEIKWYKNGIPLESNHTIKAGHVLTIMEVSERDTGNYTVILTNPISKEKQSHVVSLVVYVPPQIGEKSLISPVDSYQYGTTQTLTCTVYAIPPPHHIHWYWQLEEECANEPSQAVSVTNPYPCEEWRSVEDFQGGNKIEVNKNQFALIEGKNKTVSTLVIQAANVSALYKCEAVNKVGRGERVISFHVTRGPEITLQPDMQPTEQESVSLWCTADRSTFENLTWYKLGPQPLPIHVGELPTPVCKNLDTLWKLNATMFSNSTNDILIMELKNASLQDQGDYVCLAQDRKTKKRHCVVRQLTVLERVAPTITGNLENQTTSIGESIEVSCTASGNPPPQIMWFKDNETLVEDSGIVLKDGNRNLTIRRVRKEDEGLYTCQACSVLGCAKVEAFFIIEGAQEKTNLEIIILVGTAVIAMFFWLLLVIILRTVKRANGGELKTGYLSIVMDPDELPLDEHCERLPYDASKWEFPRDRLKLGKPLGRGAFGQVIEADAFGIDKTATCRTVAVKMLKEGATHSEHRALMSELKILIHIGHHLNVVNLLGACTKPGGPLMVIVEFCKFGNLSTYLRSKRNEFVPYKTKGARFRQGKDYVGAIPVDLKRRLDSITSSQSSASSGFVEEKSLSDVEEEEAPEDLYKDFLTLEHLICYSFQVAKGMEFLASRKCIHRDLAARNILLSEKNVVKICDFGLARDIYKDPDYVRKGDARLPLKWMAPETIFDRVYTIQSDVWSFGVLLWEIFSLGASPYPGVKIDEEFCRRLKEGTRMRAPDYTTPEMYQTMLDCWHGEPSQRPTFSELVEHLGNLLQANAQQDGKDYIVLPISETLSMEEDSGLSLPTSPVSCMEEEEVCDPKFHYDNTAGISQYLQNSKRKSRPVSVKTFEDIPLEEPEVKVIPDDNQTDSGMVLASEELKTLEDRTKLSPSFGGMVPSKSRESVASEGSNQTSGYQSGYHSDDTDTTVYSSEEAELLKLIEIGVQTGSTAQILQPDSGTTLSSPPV
smiles,measurement,setting,value
"O=C1CCc2c(Oc3ccc4c(c3)[C@@H]3[C@H](O4)[C@H]3c3nc4ccc(C(F)(F)F)cc4[nH]3)ccnc2N1 [5-(((1R,1aS,6bR)-1-(6-(trifluoromethyl)-1H-benzo[d]imidazol-2-yl)-1a,6b-dihydro-1H-cyclopropa[b]benzofuran-5-yl)oxy)-3,4-dihydro-1,8-naphthyridin-2(1H)-one sesqui-maleate salt]",enzyme inhibition,VEGFR2,potently inhibits
same,pIC50,VEGFR2; ATP at KM,7.66
same,enzyme inhibition,WT-EGFR; EGFR,potently inhibits
same,pIC50,"WT-EGFR; WT-EGFR, ATP at KM",7.36
same,enzyme inhibition,HER2 (aa676-1255),weak inhibition
same,pIC50,HER2 (aa676-1255); ATP at KM,5.59
same,water uptake,[1],0.1801%
same,bioavailability,"[2]; Sprague-Dawley, rat, in vivo, po",51 to 102%
same,half-life,"[2]; Sprague-Dawley, rat, in vivo, after oral administration, read-out: elimination half-life",4.4 to 9.4 h
same,accumulation after multiple dosing,[2],~2 fold
same,kinetics over dose range,[2]; 0.5 to 15 mg/kg,linear
same,pIC50,"wild-type Braf; WT-BRAF, ATP at KM",7.16
same,enzyme inhibition,wild-type Braf; wild-type B-RAF,potent and reversible inhibitor
same,enzyme inhibition,C-Raf (Y340D/Y341D); C-RAF,potent and reversible inhibitor
same,pIC50,"C-Raf (Y340D/Y341D); CRAF Y340, 341D, ATP at KM",8.46
